Laboratory results published in US9073926B2, “Heterocyclic compounds containing a pyrrolopyridine or benzimidazole core” (Boehringer Ingelheim International GmbH, priority 2009, dated 2015).

Molecular target: Human RSK2 (Homo sapiens (Human), UniProt P51812)
Assay: Human RSK2 Assay (Kinase Glo Plus, residual ATP)
Type: biochemical
Details: 0.75 nM His-RSK2, 0.75 μM ATP, 1.0 μM S6 Kinase/RSK Substrate Peptide 1
Method: Experimental Method A: Human RSK2 Assay
Compounds are assessed for their ability to inhibit the phosphorylation of a substrate peptide by RSK2.
Human RSK2 protein, purchased from Invitrogen, is used to measure kinase activity utilizing Kinase Glo Plus (Promega) a homogeneous assay technology, which uses a luciferin-luciferase based ATP detection reagent to quantify residual ATP. The assay is performed using 0.75 nM His-RSK2, 0.75 μM ATP and 1.0 μM S6 Kinase/RSK Substrate Peptide 1 (Upstate, catalog #12-124), in assay buffer consisting of 25 mM HEPES, pH 7.5, 10 mM MgCl2, 5 mM MnCl2, 50 mM KCl, 0.2% BSA, 0.01% CHAPS, 100 μM Na3VO4, 0.5 mM DTT, and 1% DMSO. Solutions of test compounds at various concentrations are prepared by 1:3 fold serial dilution of a 1 mM solution of compound in DMSO. The DMSO solutions are further diluted with assay buffer to a final concentration of DMSO of 5%.
The assay is performed in a 384 well, white, non-binding plate (Corning, catalogue #3574). Solutions of test compounds (10 μL) are transferred to a dry assay plate, followed by addition of 20 μL kinase and 20 μL ATP+Substrate Peptide 1 described above. The kinase reaction mixture is incubated for 90 minutes at 28° C. followed by addition of 30 μL of ATP detection reagent for 15 minutes at room temperature. The relative light unit (RLU) signal is measured on a LJL Analyst (Molecular Devices) in luminescence mode using 384 aperture. The RLU signals were converted to percent of control (POC) values using the formula: POC=100*(BCTRL−Signal)/(BCTRL−PCTRL), where Signal is the test well RLU signal, BCTRL is the average of background (negative control), which consists of ATP+peptide and compound buffer, well signals on the plate, and PCTRL is the average of positive control, which consists of kinase, ATP+peptide, and compound buffer, well signals on the plate. For concentration-responsive compounds, POC as a function of test compound concentration are fitted to a 4-parameter logistic equation of the form: Y=A+(B−A)/[1+(x/C)^D], where A, B, C, and D are fitted parameters (parameter B is fixed at zero POC), and x and y are the independent and dependent variables, respectively. The IC50 (50% inhibitory concentration) is determined as the inflection point parameter, C. Experimental Method B: Human RSK2 Trans-Reporter Assay

Human RSK2, sequence (P51812 whole entry): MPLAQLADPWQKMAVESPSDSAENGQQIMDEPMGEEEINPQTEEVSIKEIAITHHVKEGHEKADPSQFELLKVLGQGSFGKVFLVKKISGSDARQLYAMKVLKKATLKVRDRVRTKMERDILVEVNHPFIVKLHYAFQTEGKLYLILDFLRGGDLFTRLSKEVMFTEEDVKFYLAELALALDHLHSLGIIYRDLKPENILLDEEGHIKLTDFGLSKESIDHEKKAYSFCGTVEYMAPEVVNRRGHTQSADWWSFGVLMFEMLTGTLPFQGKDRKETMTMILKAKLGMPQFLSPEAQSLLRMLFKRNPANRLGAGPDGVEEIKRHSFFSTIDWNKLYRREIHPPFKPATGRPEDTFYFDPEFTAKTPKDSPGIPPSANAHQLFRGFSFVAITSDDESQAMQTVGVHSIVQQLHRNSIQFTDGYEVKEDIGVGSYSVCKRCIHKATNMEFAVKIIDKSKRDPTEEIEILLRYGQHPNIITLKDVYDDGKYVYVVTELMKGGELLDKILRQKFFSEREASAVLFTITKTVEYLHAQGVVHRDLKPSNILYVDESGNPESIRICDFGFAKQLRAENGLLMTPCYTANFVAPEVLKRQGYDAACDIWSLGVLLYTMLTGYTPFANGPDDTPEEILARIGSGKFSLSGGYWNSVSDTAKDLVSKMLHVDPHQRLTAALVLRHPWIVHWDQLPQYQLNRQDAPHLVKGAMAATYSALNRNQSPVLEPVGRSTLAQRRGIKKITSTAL

Work on `Cn1cc(NC(=O)c2ccc3cc4n(c3n2)CC(C)(C)CNC4=O)cn1` [Example 42, 9,9-dimethyl-N-(1-methyl-1H-pyrazol-4-yl)-6-oxo-7,8,9,10-tetrahydro-6H-pyrido[3′,2′:4,5]pyrrolo[1,2-a][1,4]diazepine-2-carboxamide] yielded an IC50 of 72 nM.
In the case of `CC1CNC(=O)c2cc3ccc(C(=O)Nc4nccs4)nc3n21` (centres unmarked) [Example 103, 9-methyl-6-oxo-N-(1,3-thiazol-2-yl)-6,7,8,9-tetrahydropyrido[3′,2′:4,5]pyrrolo[1,2-a]pyrazine-2-carboxamide], the IC50 is reported as 330 nM.
`CCn1c(NC(=O)c2ccc3nc4n(c3c2)CCCNC4=O)nc2ccc(Cl)nc21` [Example 15, N-(5-chloro-3-ethyl-3H-imidazo[4,5-b]pyridin-2-yl)-1-oxo-2,3,4,5-tetrahydro-1H-[1,4]diazepino[1,2-a]benzimidazole-8-carboxamide] showed an IC50 of 45 nM.
`Cc1ccnc(NC(=O)c2ccc3nc4n(c3c2)CCCNC4=O)c1` [Example 5, N-(4-methylpyridin-2-yl)-1-oxo-2,3,4,5-tetrahydro-1H-[1,4]diazepino[1,2-a]benzimidazole-8-carboxamide] showed an IC50 of 3200 nM.
In the case of `CCn1c(NC(=O)c2ccc3cc4n(c3n2)CCCNC4=O)nc2ccccc21` [Example 55, N-(1-ethyl-1H-benzimidazol-2-yl)-6-oxo-7,8,9,10-tetrahydro-6H-pyrido[3′,2′:4,5]pyrrolo[1,2-a][1,4]diazepine-2-carboxamide], the IC50 is reported as 140 nM.
`O=C(Nc1nc2cc(Cl)ccc2[nH]1)c1ccc2cc3n(c2n1)CCCNC3=O` [Example 67, N-(5-chloro-1H-benzimidazol-2-yl)-6-oxo-7,8,9,10-tetrahydro-6H-pyrido[3′,2′:4,5]pyrrolo[1,2-a][1,4]diazepine-2-carboxamide] gave an IC50 of 6.1 nM.
For `CC1CCNC(=O)c2cc3ccc(C(=O)Nc4nc5ccccc5n4CCCN(C)C)nc3n21` (centres unmarked) [Example 70, N-{[3-(dimethylamino)propyl]-1H-benzimidazol-2-yl}-10-methyl-6-oxo-7,8,9,10-tetrahydro-6H-pyrido[3′,2′:4,5]pyrrolo[1,2-a][1,4]diazepine-2-carboxamide], the IC50 was 27 nM.
`CCc1cc(NC(=O)c2ccc3cc4n(c3n2)CC(C)(C)CNC4=O)no1` [Example 88, N-(5-ethyl-1,2-oxazol-3-yl)-9,9-dimethyl-6-oxo-7,8,9,10-tetrahydro-6H-pyrido[3′,2′:4,5]pyrrolo[1,2-a][1,4]diazepine-2-carboxamide] showed an IC50 of 109 nM.
In the case of `O=C(Nc1cnc2c(cnn2CC2CCOC2)c1)c1ccc2cc3n(c2n1)CCCNC3=O` (centres unmarked) [Example 36, 6-oxo-N-[1-(tetrahydrofuran-3-ylmethyl)-1H-pyrazolo[3,4-b]pyridin-5-yl]-7,8,9,10-tetrahydro-6H-pyrido[3′,2′:4,5]pyrrolo[1,2-a][1,4]diazepine-2-carboxamide], the IC50 is reported as 13 nM.
`CC1CCNC(=O)c2cc3ccc(C(=O)Nc4cnn(C)c4)nc3n21` (centres unmarked) [Example 40, 10-methyl-N-(1-methyl-1H-pyrazol-4-yl)-6-oxo-7,8,9,10-tetrahydro-6H-pyrido[3′,2′:4,5]pyrrolo[1,2-a][1,4]diazepine-2-carboxamide] was tested, and the IC50 was 0.78 nM.
Work on `O=C(Nc1cc(Cc2ccccc2)no1)c1ccc2cc3n(c2n1)CCCNC3=O` [Example 95, N-(3-benzyl-1,2-oxazol-5-yl)-6-oxo-7,8,9,10-tetrahydro-6H-pyrido[3′,2′:4,5]pyrrolo[1,2-a][1,4]diazepine-2-carboxamide] yielded an IC50 of 3.6 nM.
`C[C@@H]1NC(=O)c2cc3ccc(C(=O)Nc4nc5ccccc5n4CCCN(C)C)nc3n2[C@H]1C` (relative stereo) [Example 78, N-{1-[3-(dimethylamino)propyl]-1H-benzimidazol-2-yl}-trans-8,9-dimethyl-6-oxo-6,7,8,9-tetrahydropyrido[3′,2′:4,5]pyrrolo[1,2-a]pyrazine-2-carboxamide] showed an IC50 of 205 nM.
Work on `O=C(Nc1cnn(Cc2ccccc2)c1)c1ccc2nc3n(c2c1)CCCNC3=O` [Example 6, N-(1-benzyl-1H-pyrazol-4-yl)-1-oxo-2,3,4,5-tetrahydro-1H-[1,4]diazepino[1,2-a]benzimidazole-8-carboxamide] yielded an IC50 of 44 nM.
`C[C@H]1CNC(=O)c2cc3ccc(C(=O)Nc4cnn(Cc5ccccc5)c4)nc3n21` [Example 60, (9S)-N-(1-benzyl-1H-pyrazol-4-yl)-9-methyl-6-oxo-6,7,8,9-tetrahydropyrido[3′,2′:4,5]pyrrolo[1,2-a]pyrazine-2-carboxamide] showed an IC50 of 12 nM.
Work on `NC(=O)c1ccccc1NC(=O)c1ccc2nc3n(c2c1)CCCNC3=O` [Example 9, N-(2-carbamoylphenyl)-1-oxo-2,3,4,5-tetrahydro-1H-[1,4]diazepino[1,2-a]benzimidazole-8-carboxamide] yielded an IC50 of 295 nM.
`O=C(Nc1cnc2ccccc2c1)c1ccc2nc3n(c2c1)CCCNC3=O` [Example 12, 1-oxo-N-(quinolin-3-yl)-2,3,4,5-tetrahydro-1H-[1,4]diazepino[1,2-a]benzimidazole-8-carboxamide] was tested, and the IC50 was 1200 nM.
`CCn1c(NC(=O)c2ccc3cc4n(c3n2)CC(C)(C)CNC4=O)nc2ccccc21` [Example 56, N-(1-ethyl-1H-benzimidazol-2-yl)-9,9-dimethyl-6-oxo-7,8,9,10-tetrahydro-6H-pyrido[3′,2′:4,5]pyrrolo[1,2-a][1,4]diazepine-2-carboxamide] was tested, and the IC50 was 195 nM.
With `C[C@@H]1NC(=O)c2cc3ccc(C(=O)Nc4cc(Cc5ccccc5)on4)nc3n2[C@H]1C` (relative stereo) [Example 100, N-(5-benzyl-1,2-oxazol-3-yl)-trans-8,9-dimethyl-6-oxo-6,7,8,9-tetrahydropyrido[3′,2′:4,5]pyrrolo[1,2-a]pyrazine-2-carboxamide] the IC50 was 57 nM.
In the case of `CC1(C)CNC(=O)c2cc3ccc(C(=O)Nc4cnc5c(cnn5CC5CCOC5)c4)nc3n2C1` (centres unmarked) [Example 37, 9,9-dimethyl-6-oxo-N-[1-(tetrahydrofuran-3-ylmethyl)-1H-pyrazolo[3,4-b]pyridin-5-yl]-7,8,9,10-tetrahydro-6H-pyrido[3′,2′:4,5]pyrrolo[1,2-a][1,4]diazepine-2-carboxamide], the IC50 is reported as 25 nM.
In the case of `CC1(C)CNC(=O)c2cc3ccc(C(=O)Nc4nc5cc(Cl)ccc5[nH]4)nc3n2C1` [Example 50, N-(5-chloro-1H-benzimidazol-2-yl)-9,9-dimethyl-6-oxo-7,8,9,10-tetrahydro-6H-pyrido[3′,2′:4,5]pyrrolo[1,2-a][1,4]diazepine-2-carboxamide], the IC50 is reported as 55 nM.
In the case of `CN(C)CCCn1c(NC(=O)c2ccc3cc4n(c3n2)CCCNC4=O)nc2ccccc21` [Example 57, N-{1-[3-(dimethylamino)propyl]-1H-benzimidazol-2-yl}-6-oxo-7,8,9,10-tetrahydro-6H-pyrido[3′,2′:4,5]pyrrolo[1,2-a][1,4]diazepine-2-carboxamide], the IC50 is reported as 245 nM.
Molecule `CC1CCNC(=O)c2cc3ccc(C(=O)Nc4cnn(C(C)(C)C)c4)nc3n21` (centres unmarked) [Example 43, N-(1-tert-butyl-1H-pyrazol-4-yl)-10-methyl-6-oxo-7,8,9,10-tetrahydro-6H-pyrido[3′,2′:4,5]pyrrolo[1,2-a][1,4]diazepine-2-carboxamide] has an IC50 of 1.1 nM.
For `Cc1cc(NC(=O)c2ccc3cc4n(c3n2)C(C)CCNC4=O)no1` (centres unmarked) [Example 82, 10-methyl-N-(5-methyl-1,2-oxazol-3-yl)-6-oxo-7,8,9,10-tetrahydro-6H-pyrido[3′,2′:4,5]pyrrolo[1,2-a][1,4]diazepine-2-carboxamide], the IC50 was 5.2 nM.
